Literature values as cited in patent publication US20180228811A1, “GDNF INDUCTION FOR THE TREATMENT OF RETINAL DISORDERS” (THE SCHEPENS EYE RESEARCH INSTITUTE, INC., priority 2014, published 2018).

System: photoreceptors
Conditions: rd10 mouse, systemic treatment (Mitton et al. 2014); cited from earlier work

CCCC(CCC)C(=O)O [VPA, Valproic acid]
photoreceptor rescue, result in words: partial photoreceptor rescue
